Data taken from patent publication US9642853B2, “Stable pharmaceutical composition containing folates” (APROFOL AG, priority 2013, dated 2017).

Experiments:
[1] = refrigerator: 2 to 8° C.; cited from earlier work
Solubility in water = format: physicochemical

Row | Structure (SMILES) | true solubility of leucovorin (calculated as folinic acid) [1] | solubility in water (Solubility in water)
1 | Nc1nc2c(c(=O)[nH]1)N(C=O)C(CNc1ccc(C(=O)N[C@@H](CCC(=O)O)C(=O)O)cc1)CN2 (single isomer, unassigned) [leucovorin] | 3 mg per ml | 
2 | Nc1nc2c(c(=O)[nH]1)N(C=O)C(CNc1ccc(C(=O)NC(CCC(=O)[O-])C(=O)[O-])cc1)CN2.[Zn+2] (centres unmarked) [leucovorin zinc] |  | almost insoluble in water
